Measured values: US7560466B2, “Methods of treating or preventing autoimmune diseases with 2,4-pyrimidinediamine compounds” (Rigel Pharmaceuticals, Inc., priority 2003, dated 2009)
pIC50: −log10 of the molar value. Counter-ions that a name gives are not always drawn. Like-named read-outs stand apart in the source and are kept apart here.

Tests used:
[1] = tested on: cultured human mast cells (CHMC), ionomycin-induced degranulation; assay: CHMC low cell density ionomycin activation: tryptase assay; type: cell-based; conditions: ionomycin activation, read-out: LD Tryptase, CHMC, Iono, 3pt
[2] = tested on: cultured human mast cells (CHMC), IgE-induced degranulation; assay: CHMC low cell density IgE activation: tryptase assay; type: cell-based
Outline: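 Tryptase release read fluorogenically (30 min, room temperature) from supernatants of anti-IgE-challenged cultured human mucosal mast cells derived from umbilical cord CD34+ cells, at low density of 1000–1500 cells/well.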

[3] = CHMC low cell density, 8pt, read-out: LD Tryptase, CHMC, IgE, 8pt
[4] = CHMC low cell density, 3pt, read-out: LD Tryptase, CHMC, IgE, 3pt
[5] = low cell density CHMC, 3-point, read-out: LD Tryptase, CHMC, IgE, 3pt
[6] = low cell density CHMC, 8-point, read-out: LD Tryptase, CHMC, IgE, 8pt

| SMILES | pIC50 ([1]; CHMC low cell density, 3pt) | pIC50 [2, 3] | pIC50 [2, 4] | pIC50 ([1]; low cell density CHMC, 3-point) | pIC50 [2, 5] | pIC50 [2, 6] |
| --- | --- | --- | --- | --- | --- | --- |
| CNC(=O)COc1cccc(Nc2ncc(F)c(Nc3ccc4c(c3)NCC(C)(C)O4)n2)c1 [Compound 1000, N4-(3,4-Dihydro-2,2-dimethyl-4H-benz[1,4]oxazin-6-yl)-5-fluoro-N2-[3-(N-methylamino)carbonylmethyleneoxyphenyl]-2,4-pyrimidinediamine] | > 5.00 | > 5.00 |  |  |  |  |
| Cc1ccccc1Nc1ncc(F)c(Nc2ccc3c(n2)NC(=O)C(C)(C)O3)n1 [Compound 1004, N4-(2,2-Dimethyl-3-oxo-4H-5-pyrid[1,4]oxazin-6-yl)-5-fluoro-N2-(2-methylphenyl)-2,4-pyrimidinediamine] | < 5.00 |  | > 5.00 |  |  |  |
| CN1C(=O)C(C)(C)Oc2ccc(N(C)c3nc(Cl)ncc3F)nc21 [Compound 1005, 2-Chloro-5-fluoro-N4-methyl-N4-(3-oxo-2,2,4-trimethyl-5-pyrid[1,4]oxazin-6-yl)-4-pyrimdinea mine] | < 5.00 |  | > 5.00 |  |  |  |
| CN1C(=O)C(C)(C)Oc2ccc(Nc3nc(Cl)ncc3F)nc21 [Compound 1006, 2-Chloro-5-fluoro-N4-(3-oxo-2,2,4-trimethyl-5-pyrid[1,4]oxazin-6-yl)-4-pyrimidinea mine] | < 5.00 |  | < 5.00 |  |  |  |
| COc1c(C)cc(Nc2ncc(F)c(Nc3ccc4c(n3)N(C)C(=O)C(C)(C)O4)n2)cc1Cl [Compound 1009, N2-(3-Chloro-4-methoxy-5-methylphenyl)-5-fluoro-N4-(3-oxo-2,2,4-trimethyl-5-pyrid[1,4]oxazin-6-yl)-2,4-pyrimidinediamine] | < 5.00 | > 5.00 | > 5.00 |  |  |  |
| CCOc1c(C)cc(Nc2ncc(F)c(Nc3ccc4c(n3)NC(=O)C(C)(C)O4)n2)cc1Cl [Compound 1010, N2-(3-Chloro-4-ethoxy-5-methylphenyl)-N4-(2,2-dimethyl-3-oxo-4H-5-pyrid[1,4]oxazin-6-yl)-5-fluoro-2,4-pyrimidinediamine] | < 5.00 |  | > 5.00 |  |  |  |
| CN1C(=O)C(C)(C)Oc2ccc(Nc3nc(Nc4cccc(-c5ncco5)c4)ncc3F)nc21 [Compound 1012, 5-Fluoro-N2-[3-(oxazol-2-yl)phenyl]-N4-[3-oxo-2,2,4-trimethyl-5-pyrid[1,4]oxazin-6-yl]-2,4-pyrimidinediamine] | < 5.00 | > 5.00 | > 5.00 |  |  |  |
| CN1C(=O)C(C)(C)Oc2ccc(Nc3nc(Nc4ccc(-c5ncco5)cc4)ncc3F)nc21 [Compound 1013, 5-Fluoro-N2-[4-(oxazol-2-yl)phenyl]-N4-[3-oxo-2,2,4-trimethyl-5-pyrid[1,4]oxazin-6-yl]-2,4-pyrimidinediamine] | < 5.00 |  | > 5.00 |  |  |  |
| CCOC(=O)COc1c(C)cc(Nc2ncc(F)c(Nc3ccc4c(c3)NC(=O)C(C)(C)O4)n2)cc1Cl [Compound 1014, N2-[3-Chloro-4-ethoxycarbonylmethyleneoxy-5-methylphenyl]-N4-(2,2-dimethyl-3-oxo-4H-benz[1,4]oxazin-6-yl)-5-fluoro-2,4-pyrimidinediamine] |  |  |  | > 5.00 | > 5.00 | > 5.00 |
| CNC(=O)COc1cccc(Nc2ncc(F)c(Nc3ccc4c(n3)N(C)C(=O)C(C)(C)O4)n2)c1 [Compound 1015, 5-Fluoro-N2-[3-(N-methylamino)carbonylmethyleneoxyphenyl]-N4-[3-oxo-2,2,4-trimethyl-5-pyrid[1,4]oxazin-6-yl]-2,4-pyrimidinediamine] |  |  |  | < 5.00 | > 5.00 | > 5.00 |
| CN1C(=O)C(C)(C)Oc2ccc(Nc3nc(Nc4cccc(-c5cnco5)c4)ncc3F)nc21 [Compound 1017, 5-Fluoro-N2-[3-(oxazol-5-yl)phenyl]-N4-[3-oxo-2,2,4-trimethyl-5-pyrid[1,4]oxazin-6-yl]-2,4-pyrimidinediamine] |  |  |  | < 5.00 | > 5.00 | > 5.00 |
| CNC(=O)COc1cccc(Nc2ncc(F)c(N(C)c3ccc4c(c3)NC(=O)C(C)(C)O4)n2)c1 [Compound 1022, N4-(2,2-Dimethyl-3-oxo-4H-benz[1,4]oxazin-6-yl)-5-fluoro-N4-methyl-N2-[3-(N-methylamino)carbonylmethyleneoxyphenyl]-2,4-pyrimidinediamine] |  |  |  | < 5.00 | > 5.00 | > 5.00 |
| Cc1cc(Nc2ncc(F)c(Nc3ccc4c(n3)NC(=O)C(C)(C)O4)n2)cc(Cl)c1OC1CCCC1 [Compound 1027, N2-(3-Chloro-4-cyclopentyloxy-5-methylphenyl)-N4-(2,2-dimethyl-3-oxo-4H-5-pyrid[1,4]oxazin-6-yl)-5-fluoro-2,4-pyrimidinediamine] |  |  |  | < 5.00 | > 5.00 |  |
| CC1(C)Oc2ccc(Nc3nc(Nc4cccc(-c5ncco5)c4)ncc3F)nc2NC1=O [Compound 1028, N4-(2,2-Dimethyl-3-oxo-4H-5-pyrid[1,4]oxazin-6-yl)-5-fluoro-N2-[3-(oxazol-2-yl)phenyl]-2,4-pyrimidinediamine] |  |  |  | < 5.00 | > 5.00 | > 5.00 |
| CC1(C)Oc2ccc(Nc3nc(Nc4cccc(-c5cocn5)c4)ncc3F)nc2NC1=O [Compound 1029, N4-(2,2-Dimethyl-3-oxo-4H-5-pyrid[1,4]oxazin-6-yl)-5-fluoro-N2-[3-(oxazol-4-yl)phenyl]-2,4-pyrimidinediamine] |  |  |  | < 5.00 | > 5.00 | > 5.00 |
| CNC(=O)COc1c(C)cc(Nc2ncc(F)c(Nc3ccc4c(n3)NC(=O)C(C)(C)O4)n2)cc1Cl [Compound 1037, N2-[3-Chloro-5-methyl-4-(N-methylamino)carbonylmethyleneoxyphenyl]-N4-(2,2-dimethyl-3-oxo-4H-5-pyrid[1,4]oxazin-6-yl)-5-fluoro-2,4-pyrimidinediamine] |  |  |  | < 5.00 |  | > 5.00 |
| CCOC(=O)COc1c(C)cc(Nc2ncc(F)c(Nc3ccc4c(n3)NC(=O)C(C)(C)O4)n2)cc1C [Compound 1038, N2-(3,5-Dimethyl-4-ethoxycarbonylmethyleneoxyphenyl)-N4-(2,2-dimethyl-3-oxo-4H-5-pyrid[1,4]oxazin-6-yl)-5-fluoro-2,4-pyrimidinediamine] |  |  |  | < 5.00 |  | > 5.00 |
| Cc1cc(Nc2ncc(F)c(Nc3ccc4c(n3)NC(=O)C(C)(C)O4)n2)cc(Cl)c1OC(C)C [Compound 1040, N2-(3-Chloro-4-isopropoxy-5-methylphenyl)-N4-(2,2-dimethyl-3-oxo-4H-5-pyrid[1,4]oxazin-6-yl)-5-fluoro-2,4-pyrimidinediamine] |  |  |  | > 5.00 |  | < 5.00 |
| CNC(=O)COc1c(C)cc(Nc2ncc(F)c(Nc3ccc4c(n3)NC(=O)C(C)(C)O4)n2)cc1C [Compound 1041, N2-[3,5-Dimethyl-4-(N-methylamino)carbonylmethyleneoxyphenyl]-N4-(2,2-dimethyl-3-oxo-4H-5-pyrid[1,4]oxazin-6-yl)-5-fluoro-2,4-pyrimidinediamine] |  |  |  | > 5.00 | > 5.00 | > 5.00 |
| CCOC(=O)COc1c(C)cc(Nc2ncc(F)c(Nc3ccc4c(n3)NC(=O)C(C)(C)O4)n2)cc1Cl [Compound 1042, N2-(3-Chloro-4-ethoxycarbonylmethyleneoxy-5-methylphenyl)-N4-(2,2-dimethyl-3-oxo-4H-5-pyrid[1,4]oxazin-6-yl)-5-fluoro-2,4-pyrimidinediamine] |  |  |  | < 5.00 | < 5.00 |  |
| Cc1cc(Nc2ncc(F)c(Nc3ccc4c(n3)NC(=O)C(C)(C)O4)n2)cc(Cl)c1OCC(=O)NCC(O)CO (stereo not shown) [Compound 1043, N2-[3-Chloro-4-[N-(2,3-dihydroxypropyl)amino]carbonylmethyleneoxy-5-methylphenyl]-N4-(2,2-dimethyl-3-oxo-4H-5-pyrid[1,4]oxazin-6-yl)-5-fluoro-2,4-pyrimidinediamine] |  |  |  | < 5.00 | > 5.00 | > 5.00 |
| Cc1cc(Nc2ncc(F)c(Nc3ccc4c(n3)NC(=O)C(C)(C)O4)n2)cc(C)c1OCC(=O)NC1CCCC1 [Compound 1044, N2-[3,5-Dimethyl-4-(N-cyclopentylamino)carbonylmethyleneoxyphenyl]-N4-(2,2-dimethyl-3-oxo-4H-5-pyrid[1,4]oxazin-6-yl)-5-fluoro-2,4-pyrimidinediamine] |  |  |  | < 5.00 | < 5.00 | < 5.00 |
| CNC(=O)COc1cccc(Nc2ncc(F)c(Nc3ccc4c(c3)NC(=O)C(F)(F)O4)n2)c1 [Compound 1045, N4-(2,2-Difluoro-3-oxo-4H-benz[1,4]oxazin-6-yl)-5-fluoro-N2-[3-(N-methylamino)carbonylmethyleneoxyphenyl]-2,4-pyrimidinediamine Hydrogen Chloride Salt] |  |  |  | < 5.00 | > 5.00 | > 5.00 |
| CNC(=O)COc1cccc(Nc2ncc(F)c(Nc3ccc4c(c3)NC(=O)C(F)(F)O4)n2)c1 [Compound 1046, N4-(2,2-Difluoro-3-oxo-4H-benz[1,4]oxazin-6-yl)-5-fluoro-N2-[3-(N-methylamino)carbonylmethyleneoxyphenyl]-2,4-pyrimidinediamine Methanesulfonic Acid Salt] |  |  |  | < 5.00 | > 5.00 | > 5.00 |
| CCn1ncc2ccc(Nc3ncc(F)c(Nc4ccc5c(n4)NC(=O)C(C)(C)O5)n3)cc21 [Compound 1049, N4-(2,2-Dimethyl-3-oxo-4H-5-pyrid[1,4]oxazin-6-yl)-N2-(1-ethylindazol-6-yl)-5-fluoro-2,4-pyrimidinediamine] |  |  |  | < 5.00 | > 5.00 | > 5.00 |
| CC(C)n1ncc2ccc(Nc3ncc(F)c(Nc4ccc5c(n4)NC(=O)C(C)(C)O5)n3)cc21 [Compound 1050, N4-(2,2-Dimethyl-3-oxo-4H-5-pyrid[1,4]oxazin-6-yl)-N2-(1-isopropylindazol-6-yl)-5-fluoro-2,4-pyrimidinediamine] |  |  |  | < 5.00 | > 5.00 | > 5.00 |
